Experimental findings from patent publication US12371454B2, “Cyclic peptide compound having Kras inhibitory action” (priority 2019, dated 2025) are described below.

Starred links: 1 amine or outer side, 2 acyl side, 3 side chain; linkers in the order of their positions; H or OH if unused. Positions of bridges follow the written chain, without caps; N, C: chain ends. Non-standard residues stand in square brackets, D forms with d. Residues, ends and D or L forms follow the SMILES beside them. *: point of attachment. hPhe(3-Cl-4-CF3) = N[C@@H](CCc1ccc(C(F)(F)F)c(Cl)c1)C(=O)O; NMePhe(4-CF3) = CN[C@@H](Cc1ccc(C(F)(F)F)cc1)C(=O)O; 3Oxa8azabicyclo(3.2.1)octane = C1CC2COCC1N2*; NMePhe(4-Me) = CN[C@@H](Cc1ccc(C)cc1)C(=O)O; X11 = CN([C@@H](CCc1cccnc1)C(=O)[*:2])[*:1]; NMeNva(5,5-F2) = CN[C@@H](CCC(F)F)C(=O)O; NMeGly(cPent) = CN[C@H](C(=O)O)C1CCCC1; NMeCha = CN[C@@H](CC1CCCCC1)C(=O)O; NMeChg = CN[C@H](C(=O)O)C1CCCCC1; NMeI = CC[C@H](C)[C@H](NC)C(=O)O; Gly(cBu) = N[C@H](C(=O)O)C1CCC1; NMeE = CN[C@@H](CCC(=O)O)C(=O)O; NMeD = CN[C@@H](CC(=O)O)C(=O)O; NMeL = CN[C@@H](CC(C)C)C(=O)O; NMeAbu = CC[C@H](NC)C(=O)O; NMeS = CN[C@@H](CO)C(=O)O; Morpholide = C1CN(*)CCO1; NMeA = CN[C@@H](C)C(=O)O; Pyrrolidide = C1CCN(*)C1; Ac5c = NC1(C(=O)O)CCCC1; Aze = O=C(O)[C@@H]1CCN1; Sar = CNCC(=O)O; Propyl = CCC*

Assay [1] concerns Human pancreatic cancer cell line AsPC-1. As to the kind of experiment: Measurement of AsPC-1 cell growth inhibition (AsPC-1 CGI). The following applies: 96 h. The assay is classed as cell-based. In a few lines: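 AsPC-1 cells in 15% FBS RPMI-1640 were exposed to test compound for 96 hours at 37° C, with CellTiter-Glo as endpoint.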
Assay [2] concerns the target T1, Kras and SOS1 (biotin-tagged human Kras loaded with GDP, His-tagged human SOS1) (Homo sapiens, UniProt P01116, G12D).
T1 construct: made in house; host or cells: E. coli (stated for Kras only)
As to the kind of experiment: Protein-protein interaction inhibition between Kras and SOS1 (KrasGl2D-SOS PPI) using AlphaScreen. The settings on record: AlphaScreen; biotin-tagged human Kras loaded with GDP, His-tagged human SOS1; read-out: KRAS G12D-SOS PPI IC50. The assay is classed as binding. In a few lines:
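Binding between SOS1 and Kras is detected as bead-proximity luminescence: illuminate Ni-conjugated donors (680 nm), collect 520-620 nm emission from streptavidin-conjugated acceptors; Kras carries biotin and GDP loaded after purification, SOS1 carries a His tag.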

T1 sequence (P01116 1-188 isoform P01116-2 G12D): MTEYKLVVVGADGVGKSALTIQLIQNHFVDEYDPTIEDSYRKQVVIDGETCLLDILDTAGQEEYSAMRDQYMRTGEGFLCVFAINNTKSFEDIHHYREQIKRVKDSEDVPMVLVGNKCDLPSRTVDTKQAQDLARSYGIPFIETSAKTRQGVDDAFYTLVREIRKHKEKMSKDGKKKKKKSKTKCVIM

For the compound `CC[C@H](C)[C@@H]1NC(=O)[C@H](CC)N(C)C(=O)C[C@@H](C(=O)N2CCOCC2)N(C)C(=O)[C@H](C2CCCCC2)N(C)C(=O)C2(CCCC2)NC(=O)[C@@H]2CCCN2C(=O)[C@H](CCc2ccc(C(F)(F)F)c(Cl)c2)NC(=O)CN(C)C(=O)[C@H](Cc2ccc(C(F)(F)F)cc2)N(C)C(=O)CN(C)C(=O)CN(C)C1=O` [Compound 1884] ([NMeAbu]I[Sar][Sar][NMePhe(4-CF3)][Sar][hPhe(3-Cl-4-CF3)]P[Ac5c][NMeChg][NMeD]-Morpholide; lactam N-11), the results for the IC50 in assay [1] and in assay [2] were 20 to 50 nM and 0.41 nM, respectively.
Taken in the same sequence, the figures for `CC[C@H](C)[C@@H]1NC(=O)[C@H](CC)N(C)C(=O)C[C@@H](C(=O)N2CCCC2)N(C)C(=O)[C@H](C2CCCCC2)N(C)C(=O)C2(CCCC2)NC(=O)[C@@H]2CCCN2C(=O)[C@H](CCc2ccc(C(F)(F)F)c(Cl)c2)NC(=O)CN(C)C(=O)[C@H](Cc2ccc(C(F)(F)F)cc2)N(C)C(=O)CN(C)C(=O)CN(C)C1=O` [Compound 1890] ([NMeAbu]I[Sar][Sar][NMePhe(4-CF3)][Sar][hPhe(3-Cl-4-CF3)]P[Ac5c][NMeChg][NMeD]-Pyrrolidide; lactam N-11) were 20 to 50 nM and 0.55 nM.
As to `CC[C@H](C)[C@@H]1NC(=O)[C@H](CC(C)C)N(C)C(=O)C[C@@H](C(=O)N(C)C)N(C)C(=O)[C@H](C2CCCC2)N(C)C(=O)C2(CCCC2)NC(=O)[C@H](CCc2cccnc2)N(C)C(=O)[C@H](CCc2ccc(C(F)(F)F)c(Cl)c2)NC(=O)CN(C)C(=O)[C@H](CC2CCCCC2)N(C)C(=O)[C@@H]2CCN2C(=O)[C@H](C)N(C)C1=O` [Compound 1892] ([NMeL]I[NMeA][Aze][NMeCha][Sar][hPhe(3-Cl-4-CF3)][X11][Ac5c][NMeGly(cPent)][NMeD]-NMe2; lactam N-11), the IC50 in assay [1] is 50 to 100 nM; in assay [2], 1.5 nM.
Regarding `CCCOC[C@H]1C(=O)N(C)CC(=O)N[C@@H](CCc2ccc(C(F)(F)F)c(Cl)c2)C(=O)N2CCC[C@H]2C(=O)NC2(CCCC2)C(=O)N(C)[C@@H](C2CCCCC2)C(=O)N(C)[C@H](C(=O)N2CCOCC2)CC(=O)N(C)[C@@H](CC)C(=O)N[C@@H]([C@@H](C)CC)C(=O)N(C)CC(=O)N(C)CC(=O)N1C` [Compound 1896] ([NMeAbu]I[Sar][Sar][NMeS](Propyl)[Sar][hPhe(3-Cl-4-CF3)]P[Ac5c][NMeChg][NMeD]-Morpholide; lactam N-11), the IC50 in assay [1] is 100 to 500 nM; in assay [2], 0.49 nM.
Take `CCCOC[C@H]1C(=O)N(C)CC(=O)N[C@@H](CCc2ccc(C(F)(F)F)c(Cl)c2)C(=O)N2CCC[C@H]2C(=O)NC2(CCCC2)C(=O)N(C)[C@@H](C2CCCCC2)C(=O)N(C)[C@H](C(=O)N2C3CCC2COC3)CC(=O)N(C)[C@@H](CC(C)C)C(=O)N[C@@H]([C@@H](C)CC)C(=O)N(C)CC(=O)N(C)CC(=O)N1C` [Compound 1900] ([NMeL]I[Sar][Sar][NMeS](Propyl)[Sar][hPhe(3-Cl-4-CF3)]P[Ac5c][NMeChg][NMeD]-{3Oxa8azabicyclo(3.2.1)octane}; lactam N-11): the IC50 was 100 to 500 nM in assay [1] and 0.99 nM in assay [2].
Taken in the same sequence, the figures for `CC[C@H](C)[C@@H]1NC(=O)[C@H](CC)N(C)C(=O)C[C@@H](C(=O)N2C3CCC2COC3)N(C)C(=O)[C@H](C2CCCCC2)N(C)C(=O)C2(CCCC2)NC(=O)[C@@H]2CCCN2C(=O)[C@H](CCc2ccc(C(F)(F)F)c(Cl)c2)NC(=O)CN(C)C(=O)[C@H](CC2CCCCC2)N(C)C(=O)CN(C)C(=O)CN(C)C1=O` [Compound 1901] ([NMeAbu]I[Sar][Sar][NMeCha][Sar][hPhe(3-Cl-4-CF3)]P[Ac5c][NMeChg][NMeD]-{3Oxa8azabicyclo(3.2.1)octane}; lactam N-11) were 50 to 100 nM and 0.56 nM.
On the same counts, the results for `CC[C@H](C)[C@@H]1NC(=O)[C@H](CC)N(C)C(=O)C[C@@H](C(=O)N2CCOCC2)N(C)C(=O)[C@H](C2CCCCC2)N(C)C(=O)C2(CCCC2)NC(=O)[C@@H]2CCCN2C(=O)[C@H](CCc2ccc(C(F)(F)F)c(Cl)c2)NC(=O)CN(C)C(=O)[C@H](Cc2ccc(C)cc2)N(C)C(=O)CN(C)C(=O)CN(C)C1=O` [Compound 1904] ([NMeAbu]I[Sar][Sar][NMePhe(4-Me)][Sar][hPhe(3-Cl-4-CF3)]P[Ac5c][NMeChg][NMeD]-Morpholide; lactam N-11) are 20 to 50 nM and 0.57 nM.
On to `CC[C@H](C)[C@@H]1NC(=O)[C@H](CC)N(C)C(=O)C[C@@H](C(=O)N2CCCC2)N(C)C(=O)[C@H](C2CCCCC2)N(C)C(=O)C2(CCCC2)NC(=O)[C@@H]2CCCN2C(=O)[C@H](CCc2ccc(C(F)(F)F)c(Cl)c2)NC(=O)CN(C)C(=O)[C@H](Cc2ccc(C)cc2)N(C)C(=O)CN(C)C(=O)CN(C)C1=O` [Compound 1905] ([NMeAbu]I[Sar][Sar][NMePhe(4-Me)][Sar][hPhe(3-Cl-4-CF3)]P[Ac5c][NMeChg][NMeD]-Pyrrolidide; lactam N-11), for which the IC50 was 20 to 50 nM in assay [1] and 0.33 nM in assay [2].
On to `CC(C)C[C@H]1C(=O)N[C@@H](C2CCC2)C(=O)N(C)CC(=O)N(C)CC(=O)N(C)[C@@H](CC2CCCCC2)C(=O)N(C)CC(=O)N[C@@H](CCc2ccc(C(F)(F)F)c(Cl)c2)C(=O)N2CCC[C@H]2C(=O)NC2(CCCC2)C(=O)N(C)[C@@H](C2CCCCC2)C(=O)N(C)[C@H](C(=O)N2CCOCC2)CC(=O)N1C` [Compound 1906] ([NMeL][Gly(cBu)][Sar][Sar][NMeCha][Sar][hPhe(3-Cl-4-CF3)]P[Ac5c][NMeChg][NMeD]-Morpholide; lactam N-11), for which the IC50 in assay [1] was 50 to 100 nM; in assay [2], 0.55 nM.
`CC[C@H](C)[C@@H]1NC(=O)[C@H](CC(C)C)N(C)C(=O)C[C@@H](C(=O)N(C)C)N(C)C(=O)[C@H](C2CCCC2)N(C)C(=O)C2(CCCC2)NC(=O)[C@H](CCC(F)F)N(C)C(=O)[C@H](CCc2ccc(C(F)(F)F)c(Cl)c2)NC(=O)CN(C)C(=O)[C@H](CC2CCCCC2)N(C)C(=O)[C@@H]2CCN2C(=O)[C@H](C)N(C)C1=O` [Compound 1907] ([NMeL]I[NMeA][Aze][NMeCha][Sar][hPhe(3-Cl-4-CF3)][NMeNva(5,5-F2)][Ac5c][NMeGly(cPent)][NMeD]-NMe2; lactam N-11): the half-inhibitory concentration (IC50) is 20 to 50 nM in assay [1] and 1.3 nM in assay [2].
Taken in the same sequence, the figures for `CC(C)C[C@H]1C(=O)N[C@@H](C(C)C)C(=O)N(C)CC(=O)N(C)CC(=O)N(C)[C@@H](CC2CCCCC2)C(=O)N(C)CC(=O)N[C@@H](CCc2ccc(C(F)(F)F)c(Cl)c2)C(=O)N2CCC[C@H]2C(=O)NC2(CCCC2)C(=O)N(C)[C@@H](C2CCCCC2)C(=O)N(C)[C@H](C(=O)N2CCOCC2)CC(=O)N1C` [Compound 1908] ([NMeL]V[Sar][Sar][NMeCha][Sar][hPhe(3-Cl-4-CF3)]P[Ac5c][NMeChg][NMeD]-Morpholide; lactam N-11) were 50 to 100 nM and 0.65 nM.
For `CC[C@H](C)[C@@H]1NC(=O)[C@H](CC(C)C)N(C)C(=O)C[C@@H](C(=O)N(C)C)N(C)C(=O)[C@H]([C@@H](C)CC)N(C)C(=O)C2(CCCC2)NC(=O)[C@H](CCC(=O)NC)N(C)C(=O)[C@H](CCc2ccc(C(F)(F)F)c(Cl)c2)NC(=O)CN(C)C(=O)[C@H](Cc2ccc(C)cc2)N(C)C(=O)[C@@H]2CCN2C(=O)[C@H](C)N(C)C1=O` [Compound 1911] ([NMeL]I[NMeA][Aze][NMePhe(4-Me)][Sar][hPhe(3-Cl-4-CF3)][NMeE](NHMe)[Ac5c][NMeI][NMeD]-NMe2; lactam N-11), the IC50 was 50 to 100 nM in assay [1] and 0.67 nM in assay [2].
